Assay results taken from patent EP0816362A1, “THIAZOLE DERIVATIVES” (TAISHO PHARMACEUTICAL CO. LTD, priority 1995, dated 1996).

Biological target: T1, human D4.2 receptor (Homo sapiens, UniProt P21917, DEL265-296)
T1 sequence (P21917 with tags, fused parts or gaps DEL265-296): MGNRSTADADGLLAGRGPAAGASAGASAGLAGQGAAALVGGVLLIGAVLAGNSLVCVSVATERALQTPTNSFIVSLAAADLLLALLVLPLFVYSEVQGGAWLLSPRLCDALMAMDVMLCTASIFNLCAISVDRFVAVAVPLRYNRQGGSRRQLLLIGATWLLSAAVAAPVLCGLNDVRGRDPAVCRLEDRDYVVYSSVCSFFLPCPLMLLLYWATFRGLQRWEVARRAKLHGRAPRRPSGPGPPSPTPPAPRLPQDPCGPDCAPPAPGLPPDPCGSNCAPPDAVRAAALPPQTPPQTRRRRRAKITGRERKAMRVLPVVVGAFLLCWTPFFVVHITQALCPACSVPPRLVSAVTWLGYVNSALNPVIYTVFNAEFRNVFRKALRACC
Experiment: Dopamine D4 receptor binding experiment ([3H]-spiperone)
Description: As a receptor preparation, Chinese hamster ovary (CHO) cell membranes where human D4.2 receptor was expressed were used.
As [^3H]-labeled ligand, [^3H]-spiperone was used.
Human D4.2 receptor binding test: CHO cell membranes where human D4.2 receptor was expressed, [^3H]-spiperone (0.5 nM) and a test drug were reacted at 27°C for 2 hours in 50 mM Tris-HCl buffer, pH 7.4 containing 5 mM EDTA, 1.5 mM calcium chloride, 5 mM potassium chloride and 120 mM sodium chloride.
After the reaction, the sample was filtered under suction through a glass filter (GF/B), and the radioactivity of the filter paper was determined in a liquid scintillation spectrometer.
The binding of [^3H]-spiperone in the presence of 10 µM haloperidol was assumed to be non-specific binding, and the difference between the total binding and the non-specific binding was assumed to be specific binding.

[1] = inhibition of [3H]-spiperone binding, human D4.2 receptor
[2] = CHO cell membranes expressing human D4.2 receptor, [3H]-spiperone (0.5 nM), 27°C, 2 hours

Row | Structure (SMILES) | IC50 [1] | IC50 [2]
1 | Nc1nc(-c2ccc(F)cc2)c(C2CCN(CCCc3nsc4cc(F)ccc34)C2)s1 (stereo not shown) [Compound E-11, 2-amino-4-(4-fluorophenyl)-5-[1-[3-(6-fluoro-1,2-benzisothiazol-3-yl)propyl]pyrrolidin-3-yl]thiazole] |  | 7.22 nM
2 | Nc1nc(-c2ccc(F)cc2)c(C2CCN(CCC=Cc3ccc(F)cc3)C2)s1 (stereo not shown) [Compound C-02] |  | 81.1 nM
3 | Nc1nc(-c2ccc(F)cc2)c(CCN2CCC(CC(=O)c3ccc(F)cc3)C2)s1 (stereo not shown) [Compound K-37] | 10.5 nM | 
4 | Nc1nc(-c2ccc(F)cc2)c(C2CCN(CCCN3C(=O)Cc4cc(F)ccc43)C2)s1 (stereo not shown) [Compound H-08] |  | 46.4 nM
5 | Nc1nc(-c2ccc(F)cc2)c(CCN2CCC(C(=O)c3ccccc3)CC2)s1 [Compound K-09] |  | 42.3 nM
6 | Cc1ccc(C(=O)C2CCN(CCc3sc(C)nc3-c3ccc(F)cc3)CC2)cc1 [Compound K-25] |  | 5.46 nM
7 | Nc1nc(-c2ccc(F)cc2)c(CCN2CCC(C(=O)c3ccc(Cl)cc3)CC2)s1 [Compound K-08] |  | 29.2 nM
8 | Cc1nc(-c2ccc(F)cc2)c(CCN2CCC(C(=O)c3ccc(F)cc3F)CC2)s1 [Compound K-23] |  | 11.5 nM
9 | Nc1nc(-c2ccc(F)cc2)c(C2CCN(CCCc3noc4cc(F)ccc34)C2)s1 (stereo not shown) [Compound E-02, 2-amino-4-(4-fluorophenyl)-5-[1-[3-(6-fluoro-1,2-benzisoxazol-3-yl)propyl]pyrrolidin-3-yl]thiazole] |  | 10.5 nM
10 | Nc1nc(-c2ccc(F)cc2)c(C2CCN(CCC=C(c3ccc(F)cc3)c3ccc(F)cc3)C2)s1 (racemic) [Compound C-03] |  | 29.2 nM
11 | Nc1nc(-c2ccc(F)cc2)c(CCN2CCC(Cc3ccccc3)CC2)s1 [Compound K-04] |  | 46.4 nM
12 | Cc1ccc(C(=O)C2CCN(CCc3sc(N)nc3-c3ccc(F)cc3)CC2)cc1 [Compound K-16] |  | 9.55 nM
13 | C=C(c1ccc(F)cc1)C1CCN(CCc2sc(N)nc2-c2ccc(F)cc2)CC1 [Compound K-18] |  | 20.1 nM
14 | Nc1nc(-c2ccc(F)cc2)c(CCN2CCC(C(=O)c3ccc(Br)cc3)CC2)s1 [Compound K-15] |  | 35.1 nM
15 | COc1ccc(-c2nc(C)sc2CCN2CCC(C(=O)c3ccc(F)cc3)CC2)cc1 [Compound K-28] |  | 1.63 nM
16 | Cc1nc(-c2ccc(F)cc2)c(CCN2CCC(C(=O)c3ccccc3)CC2)s1 [Compound K-24] |  | 5.99 nM
17 | Cc1nc(-c2ccc(F)cc2)c(CCN2CCC(C(=O)c3ccc(F)cc3)CC2)s1 [Compound K-19] |  | 8.7 nM
18 | Nc1nc(-c2cccc(F)c2)c(C2CCN(CCCC(=O)c3ccc(F)cc3)C2)s1 (racemic) [Compound D-09] |  | 32 nM
19 | Nc1nc(-c2ccc(F)cc2)c(C2CCN(CCCn3c(=O)ccc4cc(F)ccc43)C2)s1 (stereo not shown) [Compound H-03] |  | 61.4 nM
20 | Cc1nc(-c2ccc(Br)cc2)c(CCN2CCC(C(=O)c3ccc(F)cc3)CC2)s1 [Compound K-27] |  | 4.98 nM

Row | Structure (SMILES) | IC50 [1] | IC50 [2]
21 | Nc1nc(-c2ccc(F)cc2)c(C2CCN(CCCN3C(=O)Cc4ccccc43)C2)s1 (stereo not shown) [Compound H-07] |  | 89 nM
22 | Nc1nc(-c2ccc(F)cc2)c(C2CCN(CCCC(c3ccc(F)cc3)c3ccc(F)cc3)C2)s1 (racemic) [Compound B-19] |  | 55.9 nM
23 | Nc1nc(-c2ccc(F)cc2)c(C2CCN(CCCC(=O)c3ccccc3)C2)s1 (racemic) [Compound D-06] |  | 38.5 nM
24 | Nc1nc(-c2ccc(F)cc2)c(CCN2CCC(C(=O)c3ccc(F)cc3)CC2)s1 [Compound K-01, 2-amino-4-(4-fluorophenyl)-5-[2-[4-(4-fluorobenzoyl)piperidin-1-yl]ethyl]thiazole] |  | 7.92 nM
25 | Cc1nc(-c2ccccc2)c(CCN2CCC(C(=O)c3ccc(F)cc3)CC2)s1 [Compound K-30] |  | 2.15 nM
26 | O=C(c1ccc(F)cc1)C1CCN(CCc2scnc2-c2ccc(F)cc2)CC1 [Compound K-33] | 2.36 nM | 
27 | Cc1nc(-c2ccc(F)cc2)c(CCN2CCC(C(=O)c3ccc(Cl)cc3)CC2)s1 [Compound K-20] |  | 5.46 nM
28 | O=C(c1ccc(F)cc1)C1CCN(CCc2sc(-c3ccccc3)nc2-c2ccc(F)cc2)CC1 [Compound K-35] | 32 nM | 
29 | Nc1nc(-c2ccc(F)cc2)c(C2CCN(CCCc3noc4cc(F)ccc34)C2)s1 (single isomer, unassigned) [Compound F-07] |  | 11.8 nM
30 | Cc1nc(-c2ccc(F)cc2)c(CCN2CCC(C(=O)c3ccc(Br)cc3)CC2)s1 [Compound K-21] |  | 11.5 nM
31 | COc1ccc(-c2nc(C)sc2CCN2CCC(C(=O)c3ccc(F)cc3)CC2)cc1Br [Compound K-31] | 0.705 nM | 
32 | CNc1nc(-c2ccc(F)cc2)c(CCN2CCC(C(=O)c3ccc(F)cc3)CC2)s1 [Compound K-36] | 3.43 nM | 
33 | CNc1nc(-c2ccc(F)cc2)c(C2CCN(CCCC(=O)c3ccc(F)cc3)C2)s1 (racemic) [Compound D-13] |  | 12.6 nM
34 | Nc1nc(-c2ccc(F)cc2)c(C2CCN(CCCN3C(=O)CCc4ccccc43)C2)s1 (stereo not shown) [Compound H-02] |  | 81.1 nM
35 | Cc1nc(-c2ccc(Cl)cc2)c(CCN2CCC(C(=O)c3ccc(F)cc3)CC2)s1 [Compound K-26] |  | 4.53 nM
36 | Nc1nc(-c2ccc(F)cc2)c(C2CCN(CCCC(=O)c3ccc(F)cc3)C2)s1 [Compound D-02, 2-amino-4-(4-fluorophenyl)-5-[1-[4-(4-fluorophenyl)-4-oxobutyl]pyrrolidin-3-yl]thiazole] |  | 6.58 nM
37 | Nc1nc(-c2ccccc2)c(CCN2CCC(C(=O)c3ccc(F)cc3)CC2)s1 [Compound K-10] |  | 8.7 nM
38 | Cc1ccc(-c2nc(C)sc2CCN2CCC(C(=O)c3ccc(F)cc3)CC2)cc1 [Compound K-29] |  | 2.36 nM
39 | Nc1nc(-c2ccc(F)cc2)c(C2CCN(CCCc3nsc4ccccc34)C2)s1 (stereo not shown) [Compound E-10] |  | 13.9 nM

Second part, the compound after the results:

Row | IC50 [1] | IC50 [2] | Structure (SMILES)
40 | 16.7 nM |  | Cc1nc(-c2ccc(Br)cc2)c(CCN2CCC(=Cc3ccc(F)cc3)CC2)s1 [Compound L-19]
41 | 2.85 nM |  | Nc1nc(-c2ccc(F)cc2)c(CCN2CCC(=Cc3ccc(F)cc3)CC2)s1 [Compound L-01]
42 | 16.7 nM |  | CC(=C1CCN(CCc2sc(C)nc2-c2ccc(F)cc2)CC1)c1ccc(F)cc1 [Compound L-31]
43 | 38.5 nM |  | Nc1nc(-c2ccc(F)cc2)c(CCCN2CCC(=Cc3ccc(F)cc3)CC2)s1 [Compound L-02]
44 | 7.92 nM |  | CC(=C1CCN(CCc2sc(N)nc2-c2ccc(F)cc2)CC1)c1ccc(F)cc1 [Compound L-15]
45 | 13.9 nM |  | COc1ccc(-c2nc(C)sc2CCN2CCC(=Cc3ccc(F)cc3)CC2)cc1Br [Compound L-22]
46 | 11.5 nM |  | Cc1nc(-c2ccc(F)cc2)c(CCN2CCC(=Cc3ccc(Cl)cc3)CC2)s1 [Compound L-24]
47 | 9.55 nM |  | Cc1nc(-c2ccc(Cl)cc2)c(CCN2CCC(=Cc3ccc(F)cc3)CC2)s1 [Compound L-18]
48 | 3.43 nM |  | Fc1ccc(-c2ncsc2CCN2CCC(=Cc3ccccc3)CC2)cc1 [Compound L-33]
49 | 16.7 nM |  | COc1ccc(C=C2CCN(CCc3sc(C)nc3-c3ccc(F)cc3)CC2)cc1 [Compound L-26]
50 | 22.1 nM |  | Nc1nc(-c2ccc(Cl)cc2)c(CCN2CCC(=Cc3ccc(F)cc3)CC2)s1 [Compound L-03]
51 | 2.6 nM |  | Cc1nc(-c2ccc(F)cc2)c(CCN2CCC(=Cc3ccccc3)CC2)s1 [Compound L-30]
52 | 73.9 nM |  | Nc1nc(-c2ccc(F)cc2)c(CCN2CCC(=Cc3ccc(Cl)cc3)CC2)s1 [Compound L-08]
53 | 2.6 nM |  | Cc1ccc(-c2nc(C)sc2CCN2CCC(=Cc3ccc(F)cc3)CC2)cc1 [Compound L-21]
54 | 2.36 nM |  | Nc1nc(-c2ccc(F)cc2)c(CCN2CCC(=Cc3ccccc3F)CC2)s1 [Compound L-12]
55 | 12.6 nM |  | Cc1nc(-c2ccc(F)cc2)c(CCN2CCC(=Cc3ccc(F)cc3)CC2)s1 [Compound L-17]
56 | 18.3 nM |  | COc1ccc(-c2nc(N)sc2CCN2CCC(=Cc3ccc(F)cc3)CC2)cc1 [Compound L-05]
57 | 29.2 nM |  | COc1ccc(C=C2CCN(CCc3sc(N)nc3-c3ccc(F)cc3)CC2)cc1 [Compound L-10]
58 | 7.22 nM |  | COc1ccc(-c2nc(C)sc2CCN2CCC(=Cc3ccc(F)cc3)CC2)cc1 [Compound L-20]
59 | 13.9 nM |  | Nc1nc(-c2ccc(Br)cc2)c(CCN2CCC(=Cc3ccc(F)cc3)CC2)s1 [Compound L-04]
60 | 1.96 nM |  | Cc1nc(-c2ccc(F)cc2)c(CCN2CCC(=Cc3cccc(F)c3)CC2)s1 [Compound L-27]
61 | 2.15 nM |  | CNc1nc(-c2ccc(F)cc2)c(CCN2CCC(=Cc3ccc(F)cc3)CC2)s1 [Compound L-35]
62 | 10.5 nM |  | Cc1nc(-c2ccc(F)cc2)c(CCN2CCC(=Cc3cccc(C(F)(F)F)c3)CC2)s1 [Compound L-29]
63 | 2.85 nM |  | Nc1nc(-c2ccc(F)cc2)c(CCN2CCC(=Cc3cccc(F)c3)CC2)s1 [Compound L-11]
64 | 4.13 nM |  | Cc1ccc(-c2nc(N)sc2CCN2CCC(=Cc3ccc(F)cc3)CC2)cc1 [Compound L-06]
65 | 3.76 nM |  | Nc1nc(-c2ccc(F)cc2)c(CCN2CCC(=Cc3ccccc3)CC2)s1 [Compound L-14]
66 | 5.99 nM |  | Cc1nc(-c2ccc(F)cc2)c(CCN2CCC(=Cc3ccccc3F)CC2)s1 [Compound L-28]
67 | 6.58 nM |  | Fc1ccc(C=C2CCN(CCc3scnc3-c3ccc(F)cc3)CC2)cc1 [Compound L-32]
